Experimental data: patent US20260137671A1, “PDK4 as a Cell-Aging Intervention Target and Its Use in Chemotherapy and Anticancer” (Shanghai Institute of Nutrition and Health, Chinese Academy …, priority 2022, published 2026)

Columns and labels:
[1] = tested on: mice with natural senescence; test: PDK4-IN intervention in naturally aged mice: tissue senescence, physical function, serum markers; assay type: in vivo, C57BL/6J mice
Method: FIG. 83. Schematic design of 20-month-old C57BL/6J mice undergoing either placebo or PDK4-IN intervention.
All testing began on day 5 after the last placebo or drug treatment. Maximum walking speed was assessed using the accelerated RotaRod System (TSE System, Chesterfiled, MO). The mice were trained on the RotaRod for 3 days at speeds of 4, 6 and 8 r.p.m, lasted for 200 seconds on the 1st, 2nd and 3rd days. On the test day, the mice were placed on the RotaRod, and the test was performed starting at a speed of 4 r.p.m. The rotation speed was accelerated from 4 to 40 r.p.m at intervals of 5 minutes. When the mice fell off the RotaRod, the speed was recorded. The final results were averaged from 3 or 4 trials and normalized to baseline speed. The mice that had been trained within the previous two months were no longer trained.
Forelimb grip strength (N) was measured using a Grip Strength Meter (Columbus Instruments, Columbus, OH), and the results were averaged from more than 10 trials. For the hanging endurance test, the mice were placed on a 2 mm thick metal wire, while the later was 35 cm above a mat. The mice were only allowed to grasp the wire with their forelimbs, and the hang time was normalized to body weight and expressed as hang duration (sec)×body weight (g). The results were the average of 2 to 3 trials per mouse. Their daily activity and food intake were monitored for 24 h (12 hours of light and 12 hours of dark) by a Comprehensive Laboratory Animal Monitoring System (CLAMS). The CLAMS system was equipped with an Oxymax Open Circuit Calorimeter System (Columbus Instruments). For treadmill performance, the mice were acclimatized to run on an electric running machine (Columbus Instruments) at a 5° incline, for 3 days of training, lasted for 5 minutes each day, started at a speed of 5 m/min for 2 minutes, then accelerated to 7 m/min for 2 minutes, then 9 m/min for 1 minute. On the day of the test, the mice ran on the treadmill at an initial speed of 5 m/min for 2 min, and then the speed increased by 2 m/min every 2 min until the mice were exhausted. Fatigue was defined as the inability of mice to return to the treadmill despite mild electrical and mechanical stimulation. The distance was recorded after the test, and the total work (KJ) was calculated with the following formula: mass (kg)×g (9.8 m/s2)×distance (m)×sin (5°).
With the increasing global senescent trend in recent years, drugs that can effectively alleviate the senescent process have become a common interest among scientists and pharmaceutical companies worldwide. The inventors queried whether manipulation of PDK4 activities can control various senescence-associated phenotypes. Therefore, the inventors chose to treat normal 20-month-old wild-type mice with PDK4-IN (PDK4-IN 10 mg/kg via intraperitoneal injection once every 2 weeks) for 4 months, after which physical function or physical ability was experimentally determined in mice with natural senescence (FIG. 83).

[2] = tested on: MDA-MB-231 breast cancer cells xenografted together with HBF1203 breast stromal cells; test: MDA-MB-231/HBF1203 xenograft, tumor end volume after chemotherapy and/or PDK4-IN; assay type: in vivo, SCID mice; details: PDK4-IN 10.0 mg/kg combined with DOX 1.0 mg/kg i.p.
Method: All experimental mouse experiments were carried out in strict accordance with the relevant regulations of the Institutional Animal Care and Use Committee (IACUC), Shanghai Institutes for Biological Sciences, Chinese Academy of Sciences. Immuno-deficient mice ICR SCID mice (body weight about 25 g) aged about 6 weeks were used for animal experiments related to the present disclosure. Stromal cells PSC27 and epithelial cells were mixed at a ratio of 1:4, and each graft contained 1.25×10^6 cells for tissue remodeling. The xenograft tumors were implanted into mice by subcutaneous transplantation, and the animals were euthanized 8 weeks after the end of the transplantation surgery. Tumor volume was calculated according to the following formula: V=(π/6)×(([…])/2)^3 (V, volume; 1, length; w, width).
For pre-clinical chemotherapeutic studies, mice received subcutaneous implantation were given standard laboratory diets. […] The time points were on the first day of the third, fifth and seventh weeks, with a total of 3 cycles of treatment, and each cycle lasted for 2 weeks. After the course of treatment, mouse […] were collected for tumor measurement and histological analysis. […] In order to cause systemic expression of SASP factors induced by chemotherapy, MIT was administered to mice through intravenous infusion according to the above steps and sequence, but the dose was reduced to 0.1 mg/kg body weight/each time (the cumulative dose of MIT received in the whole course of treatment was 0.3 mg/kg body weight) to reduce drug-related toxicity. The chemotherapy experiment ended at the end of the 8th week, and the mice were dissected immediately after sacrifice, and the xenograft tumors were collected and used for pathological system analysis.
To assess the in vivo effects of chemotherapeutic drugs and/or PDK4-IN treatment in different tumor types, the inventors subsequently generated xenografts composed of breast cancer cell line MDA-MB-231 and breast stromal cell line HBF1203 to replicate the preclinical intervention observed in prostate cancer xenografts.

[3] = tested on: mice implanted with recombinant tissues; test: Survival of tumor-bearing mice in time-extended preclinical cohort (bulky disease, size >2,000 mm^3); assay type: in vivo; details: PDK4-IN treatment alone versus vehicle
Text: FIG. 74. Curve of bulky DFS plotted against survival time of implantation with recombinant tissues in mice until animal death attributed to advanced bulky disease development. MS, median survival. P values calculated by two-sided log-rank (Mantel-Cox) tests.
Next, the inventors assessed tumor progression consequence by comparing the survival rate of different animal groups in a time-extended preclinical cohort. During tumor surveillance, bulky disease was considered once the tumor burden became prominent (size >2,000 mm^3).

[4] = 20-month-old mice, PDK4-IN 10 mg/kg i.p. once every 2 weeks for 4 months

O=C1c2ccccc2C(=O)c2c1cccc2-c1cnn(C2CCNCC2)c1 [PDK4-IN]
SA-β-gal positivity in liver, lung, prostate and myocardial tissues of aged animals [1, 4]: partially reversed
age-dependent expansion of alveoli [1, 4]: effectively controlled
grip strength [1, 4]: significantly improved
motor skills [1, 4]: significantly improved
serum lactate levels ([1]; aged animals receiving PDK4-IN treatment): significant reduction
age-related elevation of serum alanine aminotransferase (ALT) ([1]; aged mice treated with PDK4-IN): significantly avoided these changes
age-related elevation of serum aspartate aminotransferase (AST) ([1]; aged mice treated with PDK4-IN): significantly avoided these changes
age-related elevation of serum lactate dehydrogenase (LDH) ([1]; aged mice treated with PDK4-IN): significantly avoided these changes
body weight ([1]; aged mice treated with PDK4-IN): essentially unaffected
food intake ([1]; aged mice treated with PDK4-IN): essentially unaffected
further decline of tumor volume on the basis of doxorubicin (DOX) [2]: 39.8%
tumor size reduction in total compared to the control group [2]: 69.5%
survival benefit as single agent [3]: only marginal survival advantage
